pEC50: −log10 of the molar value.
Assays:
Type in all cases: cell-based
ΔF508-CFTR [1] = target: T1, ΔF508-CFTR (Homo sapiens, UniProt P13569, DEL508-508); experiment: CFTR cell surface levels using HRP-tagged ΔF508-CFTR expressing CFBE cells, intrinsic corrector capacity; set-up: % Activation: concentration or dose not given beside the values; conditions: HRP-tagged ΔF508-CFTR expressing CFBE41o- cells, compound alone (intrinsic corrector capacity), 20 hours at 33° C.; for pEC50: read-out: EC50
T1 construct: host or cells: CFBE41o-, doxycycline-inducible
T1 sequence (P13569 with tags, fused parts or gaps DEL508-508): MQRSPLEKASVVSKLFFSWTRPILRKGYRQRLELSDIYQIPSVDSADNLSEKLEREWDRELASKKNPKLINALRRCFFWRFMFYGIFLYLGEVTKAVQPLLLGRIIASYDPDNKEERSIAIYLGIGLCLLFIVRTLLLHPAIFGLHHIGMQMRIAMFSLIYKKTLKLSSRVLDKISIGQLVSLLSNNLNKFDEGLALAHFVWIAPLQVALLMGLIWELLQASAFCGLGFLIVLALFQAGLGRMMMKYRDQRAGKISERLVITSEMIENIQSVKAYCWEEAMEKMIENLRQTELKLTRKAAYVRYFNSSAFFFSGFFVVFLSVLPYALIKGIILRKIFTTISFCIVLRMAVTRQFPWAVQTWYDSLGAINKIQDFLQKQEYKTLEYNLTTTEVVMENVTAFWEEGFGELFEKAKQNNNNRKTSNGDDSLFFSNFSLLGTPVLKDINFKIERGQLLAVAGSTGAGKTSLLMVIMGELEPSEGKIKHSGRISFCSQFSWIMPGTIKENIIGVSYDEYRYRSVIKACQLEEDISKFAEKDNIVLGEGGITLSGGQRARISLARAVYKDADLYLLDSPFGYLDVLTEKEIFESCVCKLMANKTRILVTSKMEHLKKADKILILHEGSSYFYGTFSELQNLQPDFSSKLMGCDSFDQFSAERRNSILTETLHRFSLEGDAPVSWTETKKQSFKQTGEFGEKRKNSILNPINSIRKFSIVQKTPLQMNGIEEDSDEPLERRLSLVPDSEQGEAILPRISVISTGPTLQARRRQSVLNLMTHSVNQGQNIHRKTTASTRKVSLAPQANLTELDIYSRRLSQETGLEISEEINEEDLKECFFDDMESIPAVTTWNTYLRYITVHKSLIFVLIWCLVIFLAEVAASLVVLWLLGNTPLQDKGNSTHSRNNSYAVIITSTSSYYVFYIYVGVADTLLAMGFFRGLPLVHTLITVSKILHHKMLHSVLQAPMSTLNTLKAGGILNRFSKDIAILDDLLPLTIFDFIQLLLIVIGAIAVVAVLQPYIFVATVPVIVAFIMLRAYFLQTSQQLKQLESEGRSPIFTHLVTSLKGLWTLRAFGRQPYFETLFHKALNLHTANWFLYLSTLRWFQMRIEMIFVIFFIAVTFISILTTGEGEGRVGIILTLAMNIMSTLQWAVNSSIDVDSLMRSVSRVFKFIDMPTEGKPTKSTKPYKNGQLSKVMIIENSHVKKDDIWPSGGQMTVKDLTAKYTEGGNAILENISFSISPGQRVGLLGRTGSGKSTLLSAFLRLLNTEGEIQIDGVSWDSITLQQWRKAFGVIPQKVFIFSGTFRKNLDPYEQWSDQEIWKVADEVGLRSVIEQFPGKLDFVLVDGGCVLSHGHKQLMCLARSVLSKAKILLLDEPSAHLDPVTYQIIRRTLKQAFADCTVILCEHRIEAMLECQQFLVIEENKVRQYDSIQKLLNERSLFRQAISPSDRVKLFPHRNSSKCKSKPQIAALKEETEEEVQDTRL
Procedure, shortened: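 Read-out: chemiluminescent HRP activity of ECL4-HRP-tagged ΔF508-CFTR at the cell surface, 15 min substrate in dark. Normalized as 100×(sample−DMSO)/(positive control−DMSO).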

ΔF508-CFTR [2] = target: T1, ΔF508-CFTR; experiment: CFTR cell surface levels using HRP-tagged ΔF508-CFTR expressing CFBE cells, in the presence of a co-corrector; conditions: HRP-tagged ΔF508-CFTR CFBE cells, in the presence of 3 μM co-corrector; for pEC50: read-out: EC50
Procedure, shortened: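 Chemiluminescent read-out of surface HRP (15 min, dark) after PBS washes. Activity is normalized as 100×(sample−DMSO)/(3 μM co-corrector alone−DMSO).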

CFTR ΔF508 = target: T2, CFTR ΔF508 (Homo sapiens, UniProt P13569, DEL508-508); experiment: Chronic TECC assay, primary bronchial epithelial cells of CF patients homozygous for CFTR ΔF508 (corrector, co-corrector and potentiator); conditions: chronic TECC, AUC = full area under the curve upon forskolin stimulation; for % Activity at 1 μM (AUC**): test compound at 1 μM; for EC50: read-out: EC50 (nM) (AUC**); for % Activity at 3 μM (AUC**): test compound at 3 μM
T2 construct: bronchial epithelial cells isolated from CF patients homozygous for the CFTR ΔF508 mutation; McGill University; Asterand; University of North Carolina hAEC-CF; host or cells: primary human bronchial epithelial cells from CF patients homozygous for ΔF508, differentiated at air-liquid interface
T2 sequence (P13569 with tags, fused parts or gaps DEL508-508): as above
Procedure, shortened: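 Primary bronchial epithelial cells from ΔF508-homozygous CF patients on collagen IV-coated Transwells were chronically treated with test compound plus corrector and potentiator, which were re-added before recording. Ieq was derived from PD and Rt in NaCl-Ringer, pH 7.4, at 37° C, with apical amiloride and bilateral forskolin, recorded every 2 min over 20 min. Ieq increase was normalized to controls, and EC50 was taken from per-well concentrations.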

## C[C@@H](C1CCN(c2cc(C(=O)NS(=O)(=O)N(C)C)nc3c2c(C2CCC2)nn3-c2ccc(F)cc2)CC1)N1CCOCC1 [Compound 480, 3-cyclobutyl-N-(dimethylsulfamoyl)-1-(4-fluorophenyl)-4-{4-[(1S)-1-(morpholin-4-yl)ethyl]piperidin-1-yl}-1H-pyrazolo[3,4-b]pyridine-6-carboxamide]
ΔF508-CFTR [1]
  % Activation: 322.45%
  pEC50: 6.87
ΔF508-CFTR [2]
  % Activation: 545.77%
  pEC50: 7.06
CFTR ΔF508
  % Activity at 1 μM (AUC**): 548.575%

## COC1CN(S(=O)(=O)NC(=O)c2cc(N3CCC(N4CCOCC4)CC3)c3c(C4CCC4)nn(-c4ccc(F)cc4)c3n2)C1 [Compound 484, 3-cyclobutyl-1-(4-fluorophenyl)-N-(3-methoxyazetidine-1-sulfonyl)-4-[4-(morpholin-4-yl)piperidin-1-yl]-1H-pyrazolo[3,4-b]pyridine-6-carboxamide]
ΔF508-CFTR [1]
  % Activation: 216.9%
  pEC50: 6.91
ΔF508-CFTR [2]
  % Activation: 485.6%
  pEC50: 6.85
CFTR ΔF508
  % Activity at 1 μM (AUC**): 380%

## O=C(NS(=O)(=O)N1CCOCC1)c1cc(N2CCC(N3CCOCC3)CC2)c2c(C3CCC3)nn(-c3ccc(F)cc3)c2n1 [Compound 487, 3-cyclobutyl-1-(4-fluorophenyl)-N-(morpholine-4-sulfonyl)-4-[4-(morpholin-4-yl)piperidin-1-yl]-1H-pyrazolo[3,4-b]pyridine-6-carboxamide]
ΔF508-CFTR [1]
  % Activation: 203.53%
  pEC50: 6.76
ΔF508-CFTR [2]
  % Activation: 404.63%
  pEC50: 7.16
CFTR ΔF508
  % Activity at 1 μM (AUC**): 340%

## CC(=O)N1CCN(C2CCN(c3cc(C(=O)NS(=O)(=O)N(C)C)nc4c3c(C3CCC3)nn4-c3ccc(F)cc3)CC2)CC1 [Compound 493, 4-[4-(4-acetylpiperazin-1-yl)piperidin-1-yl]-3-cyclobutyl-N-(dimethylsulfamoyl)-1-(4-fluorophenyl)-1H-pyrazolo[3,4-b]pyridine-6-carboxamide]
ΔF508-CFTR [1]
  % Activation: 275.2%
  pEC50: 6.76
ΔF508-CFTR [2]
  % Activation: 480.78%
  pEC50: 7.02
CFTR ΔF508
  EC50: 371 nM
  % Activity at 1 μM (AUC**): 271.4141%

## O=C(NS(=O)(=O)C1CCOC1)c1cc(N2CCC(CN3CCOCC3)CC2)c2c(C3CCC3)nn(-c3ccc(F)cc3)c2n1 (stereo not shown) [Compound 495, 3-cyclobutyl-1-(4-fluorophenyl)-4-{4-[(morpholin-4-yl)methyl]piperidin-1-yl}-N-(oxolane-3-sulfonyl)-1H-pyrazolo[3,4-b]pyridine-6-carboxamide]
ΔF508-CFTR [1]
  % Activation: 242.05%
  pEC50: 6.66
ΔF508-CFTR [2]
  % Activation: 469.08%
  pEC50: 7.18
CFTR ΔF508
  % Activity at 3 μM (AUC**): 262.4635%

## CN(C)S(=O)(=O)NC(=O)c1cc(N2CCC(N3CCC(C#N)CC3)CC2)c2c(C3CCC3)nn(-c3ccc(F)cc3)c2n1 [Compound 522, 4-(4-cyano[1,4'-bipiperidin]-1'-yl)-3-cyclobutyl-N-(dimethylsulfamoyl)-1-(4-fluorophenyl)-1H-pyrazolo[3,4-b]pyridine-6-carboxamide]
ΔF508-CFTR [1]
  % Activation: 317.9%
  pEC50: 6.94
ΔF508-CFTR [2]
  % Activation: 525.66%
  pEC50: 7.10
CFTR ΔF508
  EC50: 21.9 nM
  % Activity at 1 μM (AUC**): 666.6667%

## CN(C)S(=O)(=O)NC(=O)c1cc(N2CCC(N3CC(C#N)C3)CC2)c2c(C3CCC3)nn(-c3ccc(F)cc3)c2n1 [Compound 523, 4-[4-(3-cyanoazetidin-1-yl)piperidin-1-yl]-3-cyclobutyl-N-(dimethylsulfamoyl)-1-(4-fluorophenyl)-1H-pyrazolo[3,4-b]pyridine-6-carboxamide]
ΔF508-CFTR [1]
  % Activation: 236.53%
  pEC50: 6.91
ΔF508-CFTR [2]
  % Activation: 451.33%
  pEC50: 7.00
CFTR ΔF508
  % Activity at 3 μM (AUC**): 460.2177%

## CN(C)S(=O)(=O)NC(=O)c1cc(N2CCC(N3CCC(F)CC3)CC2)c2c(C3CCC3)nn(-c3ccc(F)cc3)c2n1 [Compound 525, 3-cyclobutyl-N-(dimethylsulfamoyl)-4-(4-fluoro[1,4'-bipiperidin]-1'-yl)-1-(4-fluorophenyl)-1H-pyrazolo[3,4-b]pyridine-6-carboxamide]
ΔF508-CFTR [1]
  % Activation: 274.75%
  pEC50: 6.86
ΔF508-CFTR [2]
  % Activation: 460.3%
  pEC50: 7.13
CFTR ΔF508
  EC50: 50.3 nM
  % Activity at 1 μM (AUC**): 477.2665%

## CN(C)S(=O)(=O)NC(=O)c1cc(N2CCC(N3CCC(F)(F)CC3)CC2)c2c(C3CCC3)nn(-c3ccc(F)cc3)c2n1 [Compound 526, 3-cyclobutyl-4-(4,4-difluoro[1,4'-bipiperidin]-1'-yl)-N-(dimethylsulfamoyl)-1-(4-fluorophenyl)-1H-pyrazolo[3,4-b]pyridine-6-carboxamide]
ΔF508-CFTR [1]
  % Activation: 269.23%
  pEC50: 6.82
ΔF508-CFTR [2]
  % Activation: 472.58%
  pEC50: 6.97
CFTR ΔF508
  EC50: 14.2 nM
  % Activity at 1 μM (AUC**): 400%

## CN(C)S(=O)(=O)NC(=O)c1cc(N2CCC(N3CCOC(C#N)C3)CC2)c2c(C3CCC3)nn(-c3ccc(F)cc3)c2n1 (stereo not shown) [Compound 527, 4-[4-(2-cyanomorpholin-4-yl)piperidin-1-yl]-3-cyclobutyl-N-(dimethylsulfamoyl)-1-(4-fluorophenyl)-1H-pyrazolo[3,4-b]pyridine-6-carboxamide]
ΔF508-CFTR [1]
  % Activation: 295.95%
  pEC50: 7.10
ΔF508-CFTR [2]
  % Activation: 500%
  pEC50: 7.27
CFTR ΔF508
  % Activity at 1 μM (AUC**): 370.693%

## CC(C)Oc1cc(-n2nc(C3CCC3)c3c(N4CCC(N5CCOCC5)CC4)cc(C(=O)NS(=O)(=O)N(C)C)nc32)ccn1 [Compound 529, 3-cyclobutyl-N-(dimethylsulfamoyl)-4-[4-(morpholin-4-yl)piperidin-1-yl]-1-{2-[(propan-2-yl)oxy]pyridin-4-yl}-1H-pyrazolo[3,4-b]pyridine-6-carboxamide]
ΔF508-CFTR [1]
  % Activation: 278.55%
  pEC50: 7.22
ΔF508-CFTR [2]
  % Activation: 444.13%
  pEC50: 7.65
CFTR ΔF508
  EC50: 19.1 nM
  % Activity at 1 μM (AUC**): 520%

## CC(C)Oc1cc(-n2nc(C3CCC3)c3c(N4CCC(N5CCOCC5)CC4)cc(C(=O)NS(C)(=O)=O)nc32)ccn1 [Compound 530, 3-cyclobutyl-N-(methanesulfonyl)-4-[4-(morpholin-4-yl)piperidin-1-yl]-1-{2-[(propan-2-yl)oxy]pyridin-4-yl}-1H-pyrazolo[3,4-b]pyridine-6-carboxamide]
ΔF508-CFTR [1]
  % Activation: 323.1%
  pEC50: 7.26
ΔF508-CFTR [2]
  % Activation: 464.6%
  pEC50: 7.64
CFTR ΔF508
  % Activity at 1 μM (AUC**): 326.6667%

## Cc1cc(N2CCN(c3cc(C(=O)NS(=O)(=O)N(C)C)nc4c3c(C3CCC3)nn4C3CCCCC3)CC2)ccn1 [Compound 535, 3-cyclobutyl-1-cyclohexyl-N-(dimethylsulfamoyl)-4-[4-(2-methylpyridin-4-yl)piperazin-1-yl]-1H-pyrazolo[3,4-b]pyridine-6-carboxamide]
ΔF508-CFTR [1]
  % Activation: 385.8%
  pEC50: 6.41
ΔF508-CFTR [2]
  % Activation: 670.35%
  pEC50: 5.90
CFTR ΔF508
  % Activity at 1 μM (AUC**): 335.0294%

## O=C(NS(=O)(=O)N1CCC(F)C1)c1cc(N2CCC(N3CCOCC3)CC2)c2c(C3CCC3)nn(-c3ccc(F)cc3)c2n1 (stereo not shown) [Compound 537, 3-cyclobutyl-1-(4-fluorophenyl)-N-(3-fluoropyrrolidine-1-sulfonyl)-4-[4-(morpholin-4-yl)piperidin-1-yl]-1H-pyrazolo[3,4-b]pyridine-6-carboxamide]
ΔF508-CFTR [1]
  % Activation: 214.5%
  pEC50: 6.95
ΔF508-CFTR [2]
  % Activation: 417.1%
  pEC50: 7.29
CFTR ΔF508
  % Activity at 3 μM (AUC**): 261.5724%

## CN(C)S(=O)(=O)NC(=O)c1cc(N2CCC(N3CCC(F)C3)CC2)c2c(C3CCC3)nn(-c3ccc(F)cc3)c2n1 (stereo not shown) [Compound 541, 3-cyclobutyl-N-(dimethylsulfamoyl)-1-(4-fluorophenyl)-4-[4-(3-fluoropyrrolidin-1-yl)piperidin-1-yl]-1H-pyrazolo[3,4-b]pyridine-6-carboxamide]
ΔF508-CFTR [1]
  % Activation: 231.7%
  pEC50: 6.35
ΔF508-CFTR [2]
  % Activation: 457.2%
  pEC50: 6.94
CFTR ΔF508
  % Activity at 1 μM (AUC**): 320%

## CC(C)Oc1nn(C2CCCCC2)c2nc(C(=O)NS(=O)(=O)N(C)C)cc(-c3ccc(C(=O)N4CCC(N(C)C)CC4)cc3)c12 [Compound 546, 1-cyclohexyl-4-{4-[4-(dimethylamino)piperidine-1-carbonyl]phenyl}-N-(dimethylsulfamoyl)-3-[(propan-2-yl)oxy]-1H-pyrazolo[3,4-b]pyridine-6-carboxamide]
ΔF508-CFTR [1]
  % Activation: 138.05%
  pEC50: 6.49
ΔF508-CFTR [2]
  % Activation: 335.3%
  pEC50: 6.74
CFTR ΔF508
  % Activity at 3 μM (AUC**): 282.0317%

Source: patent publication US10259810B2, “N-sulfonylated pyrazolo[3,4-b]pyridin-6-carboxamides and method of use” (AbbVie S.à.r.l., priority 2015, dated 2019)
